These results are taken from patent US8609414B2, “Isolation and growth of stem cells from hemangiomas” (priority 2007, dated 2013).

The subject of this assay is hemangioma tumor spheres. The following applies: DMEM/F12 + 50 μg/ml VEGF + NEAA. The procedure:
Another key property of stem cells is their ability to differentiate into mature cells. To assess whether hemangioma tumor sphere cells are able to differentiate into mature cells, tumor cells were cultured in appropriate growth factors.

Consider VEGF, for which the “differentiation of hemangioma tumor sphere cells into mature cells” value (72 hours) is listed as “differentiated into the endothelial-like tissue”. In addition, for the setting “phase-contrast microscopy”, the “time to changes in cell morphology” value is at most 24 hours.
